According to paper PMC10066365, “Nemacol is a small molecule inhibitor of C. elegans vesicular acetylcholine transporter with anthelmintic potential” (Nature Communications, 2023):
Several values for one entry are separate records, joined by “and”; a condition that tells them apart may be missing. Equal values may be shown once. Read-outs that look alike come from different tables or passages of the source.

What was measured:
[1] = tested on: C. elegans unc-17 mutants
Protocol: Significance was calculated using Fisher’s method (one-sided comparisons; see 'Methods'). […] Worms were incubated on the plates for 60 min.
Locomotor phenotype analyses were done in 24-well plates with 1 mL of MYOB substrate (27.5 g Trizma HCl, 12 g Trizma Base, 230 g bacto tryptone, 10 g NaCl, 0.4 g cholesterol (95%)) seeded with 25 µL of OP50 Escherichia coli on each well. Each compound was added to the MYOB substrate before pouring to achieve the desired final concentrations of 30 µM or 60 µM after diffusion through the media. Synchronized young adult worms are transferred into each well using a platinum wire pick. A Leica MZ75 stereomicroscope was used to visualize the movement of worms on the solid substrate. The specific dominant locomotor phenotype (i.e. ‘Punc’, ‘paralyzed’, ‘coiler’ or ‘wild-type locomotion’) was scored after the touch on the head with a platinum wire over a ~3–5 s of observation. […] Coiled animals were not scored as paralyzed despite sometimes not responding to light touch.

rat VAChT = target: T1, rat VAChT (Rattus norvegicus, UniProt Q62666); assay: [3H]Vesamicol competitive radioligand binding, PC12 cells expressing ratVAChT; settings: for specific binding in % of total binding (corrected by nonspecific binding NB), mean: rVAChT-PC12, 21°C, 1% DMSO
T1 construct: expressed in transfected cells; host or cells: rat PC12 (PC12 A123.7) cells, stably transfected; shared by Dr. Ali Roghani (Texas Tech University)
T1 sequence (Q62666 1-530): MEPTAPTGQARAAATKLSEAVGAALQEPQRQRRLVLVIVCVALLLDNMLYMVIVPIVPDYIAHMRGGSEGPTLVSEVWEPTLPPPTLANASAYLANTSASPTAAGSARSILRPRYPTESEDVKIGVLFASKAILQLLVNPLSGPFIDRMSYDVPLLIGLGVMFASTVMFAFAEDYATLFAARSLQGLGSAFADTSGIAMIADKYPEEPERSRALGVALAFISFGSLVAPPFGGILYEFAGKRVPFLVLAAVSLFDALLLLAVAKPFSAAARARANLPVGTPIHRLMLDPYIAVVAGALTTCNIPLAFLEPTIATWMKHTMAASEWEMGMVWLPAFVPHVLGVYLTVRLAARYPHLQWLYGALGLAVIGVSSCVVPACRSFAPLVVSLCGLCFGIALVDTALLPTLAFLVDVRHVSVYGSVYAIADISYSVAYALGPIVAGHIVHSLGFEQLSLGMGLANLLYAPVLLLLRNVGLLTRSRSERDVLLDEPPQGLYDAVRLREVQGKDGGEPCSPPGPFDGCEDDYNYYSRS

[2] = unc-17 (e327), 30 µM, 60 min, single Bio Rep
[3] = unc-17 (e327), 60 µM, 60 min, single Bio Rep
[4] = unc-17 (e795), 15 µM, 60 min, average of 3 biological repeats
[5] = unc-17 (e795), 15 µM, young adult, average of 3 biological repeats
[6] = unc-17 (e795), 30 µM, young adult, average of 3 biological repeats
[7] = unc-17 (e795), 60 µM, young adult, average of 3 biological repeats
[8] = unc-17 (md414), 15 µM, 60 min, adult worms, average of 3 biological repeats
[9] = unc-17 (md414), 30 µM, 60 min, average of 3 biological repeats
[10] = unc-17 (md414), 60 µM, 60 min, average of 3 biological repeats
[11] = unc-17 (md414), 15 µM, 60 min, single Bio Rep
[12] = unc-17 (md414), 30 µM, 60 min, single Bio Rep
[13] = unc-17 (md414), 60 µM, 60 min, single Bio Rep

SMILES: O=[N+]([O-])c1ccc(N2CCN(CC3CCCCC3)CC2)cc1 [Nemacol-1]
- Fraction Parayzed, Averages of 3 biological repeats ([1]; unc-17 (e327), 30 µM, 60 min): 0.23
- C1 (loose coil) worm count [1, 2]: 2 and 4
- C2 (tight coil) worm count [1, 2]: 8 and 9 and 7
- Fraction Coiled [1, 2]: 0.69 and 0.56 and 0.72
- Fraction No Phenotype [1, 2]: 0.00
- NP (no phene) worm count [1, 2]: 0
- Fraction Coiled, Averages of 3 biological repeats ([1]; unc-17 (e327), 60 µM, 60 min): 0.48
- Fraction Jerky-Unc, Averages of 3 biological repeats ([1]; unc-17 (e327), 60 µM, 60 min): 0.037
- Fraction No Phenotype, Averages of 3 biological repeats ([1]; unc-17 (e327), 60 µM, 60 min): 0.00
- Fraction Parayzed, Averages of 3 biological repeats ([1]; unc-17 (e327), 60 µM, 60 min): 0.48
- C1 (loose coil) worm count [1, 3]: 4 and 3 and 2
- Fraction No Phenotype [1, 3]: 0.00
- NP (no phene) worm count [1, 3]: 0
- P (paralyzed) worm count [1, 3]: 8 and 6 and 12
- Fraction Coiled [1, 4]: 0.81
- Fraction Jerky-Unc [1, 4]: 0.09
- Fraction No Phenotype [1, 4]: 0.00
- Fraction Parayzed [1, 4]: 0.09
- Fraction Coiled [1, 5]: 0.74
- Fraction Jerky-Unc [1, 5]: 0.24
- Fraction No Phenotype [1, 5]: 0.00
- Fraction Parayzed [1, 5]: 0.0185
- Fraction Coiled [1, 6]: 0.83
- Fraction Jerky-Unc [1, 6]: 0.0556
- Fraction No Phenotype [1, 6]: 0.00
- Fraction Parayzed [1, 6]: 0.11
- Fraction Coiled [1, 7]: 0.63
- Fraction Jerky-Unc [1, 7]: 0.0556
- Fraction No Phenotype [1, 7]: 0.00
- Fraction Parayzed [1, 7]: 0.31
- Fraction Coiled [1, 8]: 0.19
- Fraction Jerky-Unc [1, 8]: 0.60
- Fraction No Phenotype [1, 8]: 0.21
- Fraction Parayzed [1, 8]: 0.00
- Fraction Coiled [1, 9]: 0.44
- Fraction Jerky-Unc [1, 9]: 0.47
- Fraction No Phenotype [1, 9]: 0.037
- Fraction Parayzed [1, 9]: 0.06
- Fraction Coiled [1, 10]: 0.59
- Fraction Jerky-Unc [1, 10]: 0.27
- Fraction No Phenotype [1, 10]: 0.00
- Fraction Parayzed [1, 10]: 0.13
- Fraction Coiled, Averages of 3 biological repeats ([1]; unc-17 (md414), 15 µM, 60 min): 0.25
- Fraction Jerky-Unc, Averages of 3 biological repeats ([1]; unc-17 (md414), 15 µM, 60 min): 0.52
- Fraction No Phenotype, Averages of 3 biological repeats ([1]; unc-17 (md414), 15 µM, 60 min): 0.23
- Fraction Parayzed, Averages of 3 biological repeats ([1]; unc-17 (md414), 15 µM, 60 min): 0.00
- C1 (loose coil) worm count [1, 11]: 1 and 2
- Fraction Jerky-Unc [1, 11]: 0.35 and 0.6111 and 0.5882
- Fraction Parayzed [1, 11]: 0
- J (jerky-unc) worm count [1, 11]: 11 and 7 and 10
- P (paralyzed) worm count [1, 11]: 0
- Fraction Coiled, Averages of 3 biological repeats ([1]; unc-17 (md414), 30 µM, 60 min): 0.54
- Fraction Jerky-Unc, Averages of 3 biological repeats ([1]; unc-17 (md414), 30 µM, 60 min): 0.44
- Fraction No Phenotype, Averages of 3 biological repeats ([1]; unc-17 (md414), 30 µM, 60 min): 0.00
- Fraction Parayzed, Averages of 3 biological repeats ([1]; unc-17 (md414), 30 µM, 60 min): 0.0185
- C1 (loose coil) worm count [1, 12]: 4 and 2 and 3
- C2 (tight coil) worm count [1, 12]: 5 and 8 and 6
- Fraction Coiled [1, 12]: 0.50 and 0.63
- Fraction Jerky-Unc [1, 12]: 0.5 and 0.4444 and 0.375
- Fraction No Phenotype [1, 12]: 0.00
- J (jerky-unc) worm count [1, 12]: 8 and 9 and 6
- NP (no phene) worm count [1, 12]: 0
- Fraction Coiled, Averages of 3 biological repeats ([1]; unc-17 (md414), 60 µM, 60 min): 0.49
- Fraction Jerky-Unc, Averages of 3 biological repeats ([1]; unc-17 (md414), 60 µM, 60 min): 0.28
- Fraction No Phenotype, Averages of 3 biological repeats ([1]; unc-17 (md414), 60 µM, 60 min): 0.00
- Fraction Parayzed, Averages of 3 biological repeats ([1]; unc-17 (md414), 60 µM, 60 min): 0.22
- C2 (tight coil) worm count [1, 13]: 6
- Fraction Coiled [1, 13]: 0.56 and 0.59 and 0.33
- Fraction No Phenotype [1, 13]: 0.00
- J (jerky-unc) worm count [1, 13]: 6 and 3
- NP (no phene) worm count [1, 13]: 0
- activity ratio, mammalian VAChT Ki to C. elegans in vivo EC50 (rat VAChT): 0.11
- Ki (rat VAChT; Ki, each of two biological replicates): 875 nM and 661 nM
- specific binding in % of total binding (corrected by nonspecific binding NB), mean (rat VAChT; competitor 1.00E-04 M, experiment 2019-11-21, 2.20E-09 M 3H-vesamicol, 90 min): 2.84%
- specific binding in % of total binding (corrected by nonspecific binding NB), mean (rat VAChT; competitor 1.00E-05 M, experiment 2019-10-30, 2.92E-09 M 3H-vesamicol, 120 min): 34%
- specific binding in % of total binding (corrected by nonspecific binding NB), mean (rat VAChT; competitor 1.00E-05 M, experiment 2019-11-21, 2.20E-09 M 3H-vesamicol, 90 min): 10%
- specific binding in % of total binding (corrected by nonspecific binding NB), mean (rat VAChT; competitor 1.00E-06 M, experiment 2019-10-30, 2.92E-09 M 3H-vesamicol, 120 min): 51%
- specific binding in % of total binding (corrected by nonspecific binding NB), mean (rat VAChT; competitor 1.00E-06 M, experiment 2019-11-21, 2.20E-09 M 3H-vesamicol, 90 min): 52%
- specific binding in % of total binding (corrected by nonspecific binding NB), mean (rat VAChT; competitor 1.00E-07 M, experiment 2019-10-30, 2.92E-09 M 3H-vesamicol, 120 min): 86%
- specific binding in % of total binding (corrected by nonspecific binding NB), mean (rat VAChT; competitor 1.00E-07 M, experiment 2019-11-21, 2.20E-09 M 3H-vesamicol, 90 min): 82%
- specific binding in % of total binding (corrected by nonspecific binding NB), mean (rat VAChT; competitor 1.00E-08 M, experiment 2019-10-30, 2.92E-09 M 3H-vesamicol, 120 min): 94%
- specific binding in % of total binding (corrected by nonspecific binding NB), mean (rat VAChT; competitor 1.00E-08 M, experiment 2019-11-21, 2.20E-09 M 3H-vesamicol, 90 min): 90%
- specific binding in % of total binding (corrected by nonspecific binding NB), mean (rat VAChT; competitor 1.00E-09 M, experiment 2019-10-30, 2.92E-09 M 3H-vesamicol, 120 min): 96%
- specific binding in % of total binding (corrected by nonspecific binding NB), mean (rat VAChT; competitor 1.00E-09 M, experiment 2019-11-21, 2.20E-09 M 3H-vesamicol, 90 min): 88%
- specific binding in % of total binding (corrected by nonspecific binding NB), mean (rat VAChT; competitor 1.00E-10 M, experiment 2019-10-30, 2.92E-09 M 3H-vesamicol, 120 min): 95%
- specific binding in % of total binding (corrected by nonspecific binding NB), mean (rat VAChT; competitor 1.00E-10 M, experiment 2019-11-21, 2.20E-09 M 3H-vesamicol, 90 min): 92%
- specific binding in % of total binding (corrected by nonspecific binding NB), mean (rat VAChT; competitor 1.00E-11 M, experiment 2019-10-30, 2.92E-09 M 3H-vesamicol, 120 min): 94%
- rat VAChT Ki fold difference to vesamicol (rat VAChT; fold less affinity than vesamicol): 37 fold
- Ki (rat VAChT; in vitro mammalian VAChT Ki): 770 nM
- Ki (rat VAChT; ratVAChT Ki, [3H]Vesamicol displacement, mean): 768 nM
